Laboratory results from US10000501B2, “Inhibitors of HIF prolyl hydroxylase” (MERCK SHARP & DOHME CORP., priority 2014, dated 2018).

biological target: T1, human HIF-PHD2 (Homo sapiens, UniProt Q9GZT9); test: HIF-PHD2 inhibition assay (hydroxylation of HIF-1α peptide, time resolved fluorescence); format: biochemical; settings: FLAG-tagged full length PHD2; 0.2 μM 2-oxoglutarate, 0.5 μM HIF-1α peptide
T1 construct: FLAG-tagged full length PHD2 expressed in and purified from baculovirus-infected Sf9 cells; FLAG; made in house; host or cells: baculovirus-infected Sf9 cells
T1 sequence (Q9GZT9 whole entry): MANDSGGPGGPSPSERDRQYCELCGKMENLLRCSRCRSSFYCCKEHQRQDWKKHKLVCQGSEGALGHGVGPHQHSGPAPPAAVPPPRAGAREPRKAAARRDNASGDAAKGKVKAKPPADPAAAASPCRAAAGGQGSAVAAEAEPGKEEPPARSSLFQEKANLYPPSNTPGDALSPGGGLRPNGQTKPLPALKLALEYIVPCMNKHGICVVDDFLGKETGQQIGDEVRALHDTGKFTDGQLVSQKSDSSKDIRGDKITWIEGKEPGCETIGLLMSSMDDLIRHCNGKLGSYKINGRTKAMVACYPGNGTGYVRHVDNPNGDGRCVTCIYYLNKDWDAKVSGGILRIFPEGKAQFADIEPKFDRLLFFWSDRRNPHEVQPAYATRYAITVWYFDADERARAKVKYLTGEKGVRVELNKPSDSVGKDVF
Experimental: To each well of a 384-well plate, 1 μL of test compounds in DMSO (final concentration ranging from 0.3 nM to 10 uM) were added into 20 μl of assay buffer (50 mM Tris pH 7.4/0.01% Tween-20/0.1 mg/ml bovine serum albumin/10 μM ferrous sulfate/1 mM sodium ascorbate/20 μg/ml catalase) containing 0.15 μg/ml FLAG-tagged full length PHD2 expressed in and purified from baculovirus-infected Sf9 cells. […] Purif.

Point of comparison: `CN1Cc2c(c(O)c(C(=O)NCC(=O)O)c(=O)n2Cc2ccc(F)cc2F)CC1=O` [Example 72, 2-(1-(2,4-difluorobenzyl)-4-hydroxy-7-methyl-2,6-dioxo-1,2,5,6,7,8-hexahydro-1,7-naphthyridine-3-carboxamido)acetic acid], IC50 28.7 nM. Against it:
- NC(=O)c1ccc(-c2ccc(Cn3c4c(c(O)c(C(=O)NCC(=O)O)c3=O)CCOC4)cc2)cc1 [Example 68, 2-(1-((4′-carbamoyl-[1,1′-biphenyl]-4-yl)methyl)-4-hydroxy-2-oxo-2,5,6,8-tetrahydro-1H-pyrano[3,4-b]pyridine-3-carboxamido)acetic acid] — 3.7-fold lower, 7.8 nM
- N#Cc1ccc(-c2ccc(Cn3c4c(c(O)c(C(=O)NCC(=O)O)c3=O)CCOC4)cc2)cc1 [Example 69, 2-(1-((4′-cyano-[1,1′-biphenyl]-4-yl)methyl)-4-hydroxy-2-oxo-2,5,6,8-tetrahydro-1H-pyrano[3,4-b]pyridine-3-carboxamido)acetic acid] — 1.8-fold lower, 16.3 nM
- CN1Cc2c(c(O)c(C(=O)NCC(=O)O)c(=O)n2Cc2ccc(C#N)cc2F)CC1=O [Example 70, 2-(1-(4-Cyano-2-fluorobenzyl)-4-hydroxy-7-methyl-2,6-dioxo-1,2,5,6,7,8-hexahydro-1,7-naphthyridine-3-carboxamido)acetic acid] — 2.8-fold lower, 10.4 nM
- CN1Cc2c(c(O)c(C(=O)NCC(=O)O)c(=O)n2Cc2ccc(S(C)(=O)=O)cc2)CC1=O [Example 71, 2-(4-hydroxy-7-methyl-1-(4-(methylsulfonyl)benzyl)-2,6-dioxo-1,2,5,6,7,8-hexahydro-1,7-naphthyridine-3-carboxamido)acetic acid] — 1.5-fold lower, 19 nM
- CN1Cc2c(c(O)c(C(=O)NCC(=O)O)c(=O)n2Cc2cccc(C#N)c2)CC1=O [Example 73, 2-(1-(3-cyanobenzyl)-4-hydroxy-7-methyl-2,6-dioxo-1,2,5,6,7,8-hexahydro-1,7-naphthyridine-3-carboxamido)acetic acid] — 1.7-fold lower, 17.2 nM
- CN1Cc2c(c(O)c(C(=O)NCC(=O)O)c(=O)n2Cc2ccc(C#N)cc2)CC1=O [Example 74, 2-(1-(4-cyanobenzyl)-4-hydroxy-7-methyl-2,6-dioxo-1,2,5,6,7,8-hexahydro-1,7-naphthyridine-3-carboxamido)acetic acid] — 3.8-fold lower, 7.5 nM
- CN1Cc2c(c(O)c(C(=O)NCC(=O)O)c(=O)n2Cc2ccccc2Cl)CC1=O [Example 76, 2-(1-(2-chlorobenzyl)-4-hydroxy-7-methyl-2,6-dioxo-1,2,5,6,7,8-hexahydro-1,7-naphthyridine-3-carboxamido)acetic acid] — 2.7-fold lower, 10.6 nM
- O=C(O)CNC(=O)c1c(O)c2c(n(Cc3ccc(C(F)(F)F)cc3)c1=O)NCCC2 [Example 78, 2-(4-Hydroxy-2-oxo-1-(4-(trifluoromethyl)benzyl)-1,2,5,6,7,8-hexahydro-1,8-naphthyridine-3-carboxamido)acetic acid] — 2.4-fold higher, 70 nM
- O=C(O)CNC(=O)c1c(O)c2c(n(Cc3ccc(C(F)(F)F)cc3)c1=O)CN(Cc1ccccc1)CC2 [Example 80, 2-(7-Benzyl-4-hydroxy-2-oxo-1-(4-(trifluoromethyl)benzyl)-1,2,5,6,7,8-hexahydro-1,7-naphthyridine-3-carboxamido)acetic acid] — within 1.5-fold, 32 nM
- CN1CCc2c(c(O)c(C(=O)NCC(=O)O)c(=O)n2Cc2ccc(C(F)(F)F)cc2)C1 [Example 81, 2-(4-Hydroxy-6-methyl-2-oxo-1-(4-(trifluoromethyl)benzyl)-1,2,5,6,7,8-hexahydro-1,6-naphthyridine-3-carboxamido)acetic acid] — 1.6-fold higher, 46.1 nM
- O=C(O)CNC(=O)c1c(O)c2c(n(Cc3ccc(C(F)(F)F)cc3)c1=O)C1CCC2C1 (centres unmarked) [Example 83, 2-(-4-hydroxy-2-oxo-1-(4-(trifluoromethyl)benzyl)-1,2,5,6,7,8-hexahydro-5,8-methanoquinoline-3-carboxamide)acetic acid] — 1.6-fold higher, 46 nM
- O=C(O)CNC(=O)c1c(O)c2c(n(Cc3cnc(-c4ccccc4)s3)c1=O)C1CCC2C1 (centres unmarked) [Example 84, 2-(-4-hydroxy-2-oxo-1-((2-phenylthiazol-5-yl)methyl)-1,2,5,6,7,8-hexahydro-5,8-methanoquinoline-3-carboxamido)acetic acid] — 1.5-fold lower, 19 nM
- O=C(O)CNC(=O)c1c(O)c2c(n(Cc3nc(-c4ccccc4)cs3)c1=O)C1CCC2C1 (centres unmarked) [Example 85, 2-(-4-hydroxy-2-oxo-1-((4-phenylthiaozl-2-yl)methyl)-1,2,5,6,7,8-hexahydro-5,8-methanoquinoline-3-carboxamido)acetic acid] — 2.1-fold higher, 61 nM
